Here are results for one compound from BindingDB's records for doi:10.1021/acs.jmedchem.8b01224 (Helmholtz Zentrum M?nchen, 2018).

In experiment [1] the target is T1, Tyrosine-protein phosphatase non-receptor type 1 (Homo sapiens, UniProt P18031).
T1 sequence (P18031 whole entry): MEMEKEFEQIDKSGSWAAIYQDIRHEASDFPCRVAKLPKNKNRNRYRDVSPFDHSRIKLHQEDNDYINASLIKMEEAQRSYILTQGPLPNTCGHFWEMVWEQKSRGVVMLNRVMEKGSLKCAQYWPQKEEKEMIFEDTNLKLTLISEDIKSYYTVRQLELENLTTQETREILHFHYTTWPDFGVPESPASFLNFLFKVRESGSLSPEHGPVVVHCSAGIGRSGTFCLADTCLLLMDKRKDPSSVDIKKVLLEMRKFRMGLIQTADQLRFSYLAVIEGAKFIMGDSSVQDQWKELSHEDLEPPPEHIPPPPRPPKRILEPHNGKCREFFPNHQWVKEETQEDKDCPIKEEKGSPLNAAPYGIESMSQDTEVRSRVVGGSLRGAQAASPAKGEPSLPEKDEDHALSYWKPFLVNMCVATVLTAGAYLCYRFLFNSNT
The experiment is described as follows: Binding affinity to human N-terminal His6-tagged PTP1B catalytic domain (1 to 298 residues) expressed in Escherichia coli strain Rosetta2 (DE3) assessed as dissociation rate constant using DiFMUP as substrate preincubated for 10 mins followed by substrate addition measured for 10 mins fluorescence assay.

Experiment [2] concerns the target T1, Tyrosine-protein phosphatase non-receptor type 1. The experiment is described as follows: Binding affinity to human N-terminal His6-tagged PTP1B catalytic domain (1 to 298 residues) expressed in Escherichia coli strain Rosetta2 (DE3) assessed as association rate constant using DiFMUP as substrate preincubated for 10 mins followed by substrate addition measured for 10 mins fluorescence assay.

The structures appear in SMILES notation.

Usually koff stands for the rate constant with which the complex falls apart. One may read the kon as the rate constant with which the complex forms. On to `C=c1c(O)c(O)cc2c1=CC=C1[C@@]2(C)CC[C@@]2(C)[C@@H]3C[C@](C)(C(=O)O)CC[C@]3(C)CC[C@]12C`, for which the koff in experiment [1] worked out at 0.000362 s⁻¹. For the same compound, in experiment [2], the kon worked out at 59 M⁻¹ s⁻¹.
